Consider ten molecules from patent US8859544B2, “Indolizine derivatives, process for the preparation thereof and therapeutic use thereof” (Sanofi, priority 2010, dated 2014).

“And” between values parts separate entries of the source, which are not always exact repeats. Identical values can stand only once.

Usually melting point stands for the temperature, or range, at which the solid turns liquid. A word on the inhibition: it is the change of the read-out against control, counted positive when it falls.

The subject of series [1] is HUVEC cells stimulated with FGF-2. The series can be described thus: FGF-2-induced in vitro angiogenesis of HUVEC cells. It is filed as cell-based, human. The conditions noted are these: as a percentage of the control. As to the method: To do this, matrices composed of matrigel (growth factor reduced matrigel, Becton Dickinson 356230) and collagen (rat tail collagen type I, Becton Dickinson 354236) are deposited, at a rate of 160 μl, into each chamberslide well (Biocoat Cellware collagen, Type I, 8-well culturesides: Becton Dickinson 354630), or 60 μl per well of 96-well plates (Biocoat collagen I cellware, Becton Dickinson 354407). The matrix is prepared by mixing ⅓ of matrigel, 1 mg/ml final concentration of collagen, NaOH (0.1N) (0.026× the volume of collagen in μl) and 1×PBS, and the volume is then adjusted with water. The gels are kept at 37° C. for 1 hour so as to allow them to polymerize. Next, the human vein endothelial cells (HUVECs ref: C-12200-Promocell) were seeded at 15×10^3 or 6×10^3 cells/well in 400 or 120 μl (for the 8-well or 96-well plates respectively) of EBM medium (Clonetics C3121)+2% FBS+10 μg/ml hEGF. They were stimulated with 1 or 3 ng/ml of FGF-2 (R&D systems, 133-FB-025; Invitrogen, PHG0026) for 24 h at 37° C. in the presence of 5% CO2. After 24 hours, the length of the network of microtubules formed was measured using a computer-assisted image analysis system (Imagenia Biocom, Courtaboeuf, France) and the total length of the pseudotubules in each well was determined. The average total length of the microcapillary network was calculated in μm for each condition corresponding to the average of 6 replicates.
Stimulation with FGF2 makes it possible to induce the formation of new tubules. An FGF-R antagonist is considered to be active in this test as long as it is capable of partially inhibiting this angiogenesis at a dose less than or equal to 300 nM.

Series [2] shares this test system. The series can be described thus: FGF-2-induced in vitro proliferation of HUVEC cells. It is filed as cell-based, human. The conditions noted are these: inhibition of proliferation as percentage of the control. As to the method:
To do this, HUVEC human vein endothelial cells (promocell, C-12200) are seeded at a rate of 5000 cells per well of a 96-well plate (Biocoat collagen I cellware, Becton Dickinson 354650) in 100 μl of RPMI 1640 deprivation medium (Invitrogen, 31872-025) supplemented with 0.5% or 1% FCS, 2 mM glutamine, 1× sodium pyruvate (Invitrogen, 11360-039) and 1×NEAA (Invitrogen, 11140-035), overnight at 37° C. in the presence of 5% CO2. The following morning, the medium is suctioned-off and replaced with 50 μl of deprivation medium containing the antagonists at a 2× concentration, to which are added 50 μl of FGF-2 (R&D systems, 133-FB-025; Invitrogen, PHG0026) at 0.2 ng/ml (i.e. 2×). After 48 or 72 h, 100 μl of Cell Titer-GLOW Luminescent Cell Viability Assay (Promega, G7571) are added for 10 min in order to measure, by means of a luminometer, the amount of ATP present in the cells and which is in relation to the number of cells per well corresponding to the cell proliferation.
The antagonists of the present invention are considered to be active as long as they are capable of inhibiting FGF-2-induced proliferation of HUVEC cells at a dose less than or equal to 300 nM.

The subject of series [3] is inflammatory angiogenesis in mice. The series can be described thus: Model of inflammatory angiogenesis in mice. It is filed as in vivo. The conditions noted are these: for % inhibition of the angiogenic parameter (dye content) / % inhibition of the inflammatory parameter (mass of the granuloma): mice, daily oral treatment. As to the method: The model is developed on OF1 female mice (Charles River Laboratories) weighing approximately 25 g, and by groups of 12. The animals are anaesthetized with sodium pentobarbital (60 mg/kg; Sanofi Nutrition Santé animale)) intraperitoneally. An air pocket is created on the back of the mouse by subcutaneous injection of 3 ml of air. […] Seven days later, the mice are again anaesthetized and placed on a hot plate at 40° C. One ml of carmine red (Aldrich Chemicals, 5% in 10% of gelatin) is injected into the tail vein. The animals are then placed at 4° C. for 2-3 hours. The skins are then taken and dried for 24 h in an oven at 56° C. The dry tissues are weighed and placed in 1.8 ml of digestion solution (2 mM dithiothreitol, 20 mM Na2HPO4, 1 mM EDTA, 12 U/ml papain) for 24 h. The dye is then dissolved in 0.2 ml of 5M NaOH. The skins are centrifuged at 2000 rpm for 10 min at ambient temperature. The supernatants are filtered through 0.2 μm cellulose acetate membranes. The filtrates are read in a spectrophotometer at 492 nm against a carmine red calibration range. Two parameters are studied: the dry weight of the granuloma and the amount of dye after digestion of the tissues. The results are expressed as mean values (±sem). The differences between the groups are tested with an ANOVA followed by a Dunnett's test, of which the reference group is the “solvent control” group.
The FGF-R antagonists are evaluated between 1 and 50 mg/kg using methylcellulose/tween (0.6% v/v) as vehicle or any other vehicle which allows the active ingredient to be solubilized. The molecules are administered daily, orally (one or two times a day) by gavage.

Molecule `COc1c(C)c(C(=O)c2ccc3c(c2)c(=O)n(CC(=O)N(C)C)c(=O)n3C)n2ccccc12` [Compound No. 68, 2-{6-[(1-Methoxy-2-methylindolizin-3-yl)carbonyl]-1-methyl-2,4-dioxo-1,4-dihydroquinazolin-3(2H)-yl}-N,N-dimethylacetamide] showed a melting point of 276 °C.

`CNC(=O)c1c[nH]c2ccc(C(=O)c3c(C)c(OC)c4ccccn34)cc2c1=O` [Compound No. 96, 6-[(1-Methoxy-2-methylindolizin-3-yl)carbonyl]-N-methyl-4-oxo-1,4-dihydroquinoline-3-carboxamide] displayed a melting point of 324 °C. Also, the inhibition at 0.003 µM in series [1] (Homo sapiens, 3 nM) came out at 123%. Also, the inhibition at 0.03 µM in series [1] (Homo sapiens, 30 nM) turned out to be 129%. The inhibition at 0.03 µM in series [2] (Homo sapiens, 30 nM, read-out: Percentage inhibition of angiogenesis (%)) amounted to 123%. Also, the inhibition at 0.3 µM in series [2] (Homo sapiens, 300 nM, read-out: Percentage inhibition of angiogenesis (%)) was 129%.

As for `COc1c(C)c(C(=O)c2ccc3[nH]c(=O)n(Cc4nc(C)no4)c(=O)c3c2)n2ccccc12` [Compound No. 36, 6-[(1-Methoxy-2-methylindolizin-3-yl)carbonyl]-3-[(3-methyl-1,2,4-oxadiazol-5-yl)methyl]quinazoline-2,4(1H,3H)-dione], the melting point stood at 176 °C.

As to `CCOC(=O)COn1c(=O)[nH]c2ccc(C(=O)c3c(C)c(OC)c4ccccn34)cc2c1=O` [Compound No. 34, Ethyl({6-[(1-methoxy-2-methylindolizin-3-yl)carbonyl]-2,4-dioxo-1,4-dihydroquinazolin-3(2H)-yl}oxy)acetate], the melting point was 230 °C.

As for `COc1c(C)c(C(=O)c2ccc3[nH]c(=O)n(N)c(=O)c3c2)n2ccccc12` [Compound No. 51, 3-Amino-6-[(1-methoxy-2-methylindolizin-3yl)carbonyl]quinazoline-2,4(1H,3H)-dione], the melting point is 220 °C.

With `CNC(=O)c1cn(C)c2ccc(C(=O)c3c(C)cc4ccccn34)cc2c1=O` [Compound No. 105, N-1-Dimethyl-6-[(2-methylindolizin-3-yl)carbonyl]-4-oxo-1,4-dihydroquinoline-3-carboxamide], the “Percentage inhibition of angiogenesis (%)” value in series [1] (3 nM) is 25%; in series [1] (30 nM), 105%; in series [2] (30 nM) it was 14%; in series [2] (300 nM), 123%.

As for `COc1c(C)c(C(=O)c2ccc3[nH]c(=O)n(CC(=O)N(C)C)c(=O)c3c2)n2ccccc12` [Compound No. 35, 2-{6-[(1-Methoxy-2-methylindolizin-3-yl)carbonyl]-2,4-dioxo-1,4-dihydroquinazolin-3(2H)-yl}-N,N′-dimethylacetamide], in series [3] (30 mg/kg), the “% inhibition of the angiogenic parameter (dye content)” value (“% inhibition … (dye content)” below) turned out to be 36% and the “% inhibition of the inflammatory parameter (mass of the granuloma)” value (“% inhibition … (mass of the granuloma)” below) amounted to 36%. Also, in series [3] (10 or 30 mg/kg, after one week of daily treatment), the “dye content corresponding to the angiogenesis” value is on record as “significantly reduce”.

`COc1c(C)c(C(=O)c2ccc3nc(C)[nH]c(=O)c3c2)n2ccccc12` [Compound No. 15, 6-[(1-Methoxy-2-methylindolizin-3-yl)carbonyl]-2-methylquinazolin-4(3H)-one]: the melting point was 290 °C and 287 °C. In series [3] (30 mg/kg), the “% inhibition … (dye content)” value was determined as 21% and the “% inhibition … (mass of the granuloma)” value was determined as 21%.

The molecule `CCCn1c(=O)[nH]c2ccc(C(=O)c3c(C)c(OCCOC)c4ccccn34)cc2c1=O` [Compound No. 48, 6-{[1(2-Methoxyethoxy)-2-methylindolizin-3-yl]carbonyl}-3-propylquinazoline-2,4(1H,3H)-dione] returned a melting point of 215 °C.

Take `COc1c(C)c(C(=O)c2ccc3c(c2)c(=O)c(C(=O)[O-])cn3C)n2ccccc12.[Na+]` [Compound No. 62, Sodium salt of 6-[(1-methoxy-2-methylindolizin-3-yl)carbonyl]-1-methyl-4-oxo-1,4-dihydroquinoline-3-carboxylic acid]: in series [3] (10 mg/kg), the “% inhibition … (dye content)” value was found to be 43% and the “% inhibition … (mass of the granuloma)” value is 38%.
